Reference: patent EP0465913B1, “Diaminotrifluoromethylpyrimidine derivatives, process for their production and phospholipase A2 inhibitor containing them” (ISHIHARA SANGYO KAISHA, LTD., priority 1990, dated 1992)
Structures can show the parent of a compound that is named as a salt. Where two headings read alike, the source gives them in different places.

Tests used:
[1] = biological target: T1, Porcine pancreatic phospholipase A2 (Sus scrofa, UniProt P00592); assay: Phospholipase A2 inhibitory activity, method A (egg yolk lecithin substrate); type: biochemical; conditions: 1,000 ppm, 37°C for 30 minutes, read-out: % inhibition of PLA2 (1,000 ppm)
T1 construct: purchased Boehringer Mannheim·Yamanouchi K.K. 161454·122416
Method in brief: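 Egg yolk lecithin dispersed with glycerine, Triton X-100 and CaCl2 in 50 mM Tris-HCl pH7.5 was hydrolysed by enzyme (20 ng/ml solution) with compound, 37°C, 30 min. Released free fatty acid measured by ACS-ACOD method at 540 nm; apparent enzyme level read from a standard curve to give percent inhibition.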

[2] = test system: experimental acute pancreatitis model; assay: Effects against acute pancreatitis (Test Example 8, closed duodenal loop method, lesion scores); type: in vivo, Crj-CD male rats; conditions: sodium salt, 6 hours after ventrotomy; for inhibition in vivo at 10 mg/kg: Rattus norvegicus, 10 mg/kg single intravenous injection
Method in brief: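 Closed duodenal loop pancreatitis in male Crj-CD rats (n=3) under halothane/nitrous oxide; sodium-salt compounds given i.v. into tail vein by continuous infusion or bolus, controls untreated. At 6 h, four pancreatic lesions scored 0-3; inhibition % of total and hemorrhagic scores calculated versus control.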

[3] = test system: increased vascular permeability induced by acetic acid; assay: Inhibitory activity on increased vascular permeability induced by acetic acid (Rat Whittle method, method D); type: in vivo, SD (Crj: CD) male rats; conditions: amount of leaked dye
Experimental: Using SD (Crj: CD) male rats, each test group consisted of from 3 to 5 rats. A test compound was mixed with Tween 80 [polyoxyethylenesorbitan monooleate (manufactured by Nacalai Tesque K.K.)], and distilled water was added thereto to obtain a 2% Tween 80 suspension, or it was dissolved in the form of a salt in water to obtain an aqueous solution. A test compound was orally administered, and one hour later, 0.7% acetic acid was intraperitonially injected to each rat in an amount of 0.05 ml/10 g, and at the same time, 2% brilliant blue was intravenously injected into the tail vein in an amount of 0.05 ml/20 g. Thirty minutes after the injection of brilliant blue, the cervical vertebrae were dislocated under anesthesia by chloroform, and the abdorminal cavity was washed with 10 ml of a physiological saline. The washing solution was subjected to centrifugal separation at 3,000 rpm for 10 minutes, and the amount of the dye in the supernatant was measured at 600 nm absorbance by Microplate ELISA Reader (Model 2550EIA Reader, manufactured by Bio-Rad Laboratories). The inhibition rate of the amount of leaked dye in the group to which a test compound was administered relative to the control group was obtained from the following formula, and the results are shown in Table 9. Inhibition rate (%) = (l -(C)/(D)) x 100 [formula] • C: Amount of leaked dye in the group to which a test compound was administered. • D: Amount of leaked dye in the control group.

[4] = 20 mg/kg continuous intravenous injection
[5] = read-out: Inhibition rate of hemorrhagic lesions (%)
[6] = read-out: Inhibition rate of pancreatitis lesions (%)

T1 sequence (P00592 23-146): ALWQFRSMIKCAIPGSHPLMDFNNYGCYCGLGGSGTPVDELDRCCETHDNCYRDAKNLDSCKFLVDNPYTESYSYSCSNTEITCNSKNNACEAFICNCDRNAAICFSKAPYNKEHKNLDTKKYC

CS(=O)(=O)Nc1ncc(C(F)(F)F)cc1NC(=O)c1ccc(F)cc1 [Compound No. 10, N-(2-methylsulfonylamino-5-trifluoromethyl-3-pyridyl)-4-fluorobenzamide]
inhibition at 1000 ppm [1]: 60%

CCS(=O)(=O)Nc1ncc(C(F)(F)F)cc1NC(=O)C1CCCCC1 [Compound No. 47, N-(2-ethylsulfonylamino-5-trifluoromethyl-3-pyridyl)cyclohexanecarboxamide]
Inhibition rate of hemorrhagic lesions (%) [2, 4]: 68%
inhibition at 1000 ppm [1]: 75%

CCS(=O)(=O)Nc1ncc(C(F)(F)F)cc1NC(=O)C1CCCCC1 [Compound No. 251, sodium salt of N-(2-ethylsulfonylamino-5-trifluoromethyl-3-pyridyl)cyclohexanecarboxamide]
Inhibition rate (%) ([3]; dose 12.5 mg/kg orally): 46%
inhibition in vivo at 10 mg/kg [2, 5]: 79%
inhibition in vivo at 10 mg/kg [2, 6]: 80%

CS(=O)(=O)Nc1ncc(C(F)(F)F)cc1NC(=O)C(F)(F)C(F)(F)F [compound 13]
Inhibition rate of hemorrhagic lesions (%) ([2]; 23 mg/kg continuous intravenous injection): 100%
inhibition at 1000 ppm [1]: 87%

CS(=O)(=O)Nc1ncc(C(F)(F)F)cc1NC(=O)c1ccccc1 [compound 43]
Inhibition rate of hemorrhagic lesions (%) [2, 4]: 81%
inhibition at 1000 ppm [1]: 47%

CS(=O)(=O)Nc1ncc(C(F)(F)F)cc1NC(=O)C1CCCC1 [compound 45]
Inhibition rate of hemorrhagic lesions (%) ([2]; 25 mg/kg continuous intravenous injection): 62%
inhibition at 1000 ppm [1]: 50%

Cc1cccc(C(=O)Nc2cc(C(F)(F)F)cnc2NS(C)(=O)=O)c1 [compound 78]
Inhibition rate (%) ([3]; dose 25 mg/kg orally): 40%
inhibition in vivo at 10 mg/kg [2, 5]: 96%
inhibition in vivo at 10 mg/kg [2, 6]: 91%

CS(=O)(=O)Nc1ncc(C(F)(F)F)cc1NC(=O)c1cccc(Cl)c1 [compound 79]
Inhibition rate (%) ([3]; dose 50 mg/kg orally): 74%
inhibition in vivo at 10 mg/kg [2, 5]: 23%
inhibition in vivo at 10 mg/kg [2, 6]: 39%

CS(=O)(=O)Nc1ncc(C(F)(F)F)cc1NC(=O)c1cc2ccccc2s1 [compound 86]
Inhibition rate (%) ([3]; dose 50 mg/kg orally): 37%
inhibition in vivo at 10 mg/kg [2, 5]: 87%
inhibition in vivo at 10 mg/kg [2, 6]: 85%

CS(=O)(=O)Nc1ncc(C(F)(F)F)cc1NC(=O)c1ccc2c(c1)CCC2 [compound 87]
Inhibition rate (%) ([3]; dose 12.5 mg/kg orally): 47%
inhibition in vivo at 10 mg/kg [2, 5]: 83%
inhibition in vivo at 10 mg/kg [2, 6]: 87%

C/C=C/C(=O)Nc1cc(C(F)(F)F)cnc1NS(=O)(=O)CC [compound 93, N-(2-ethylsulfonylamino-5-trifluoromethyl-3-pyridyl)crotonamide]
Inhibition rate (%) ([3]; dose 25 mg/kg orally): 54%
inhibition in vivo at 10 mg/kg [2, 5]: 70%
inhibition in vivo at 10 mg/kg [2, 6]: 70%

CCS(=O)(=O)Nc1ncc(C(F)(F)F)cc1NC(=O)C1CCCC1 [compound 94]
Inhibition rate (%) ([3]; dose 25 mg/kg orally): 45%
inhibition in vivo at 10 mg/kg [2, 5]: 11%
inhibition in vivo at 10 mg/kg [2, 6]: 11%
